The target of test [1] is T1, HIV-1 subtype B integrase (Human immunodeficiency virus type 1, UniProt P12497). The experiment in a line: Disintegration assay. In kind it is biochemical. Particulars: increasing inhibitor concentration. The text has this: Oligonucleotides were purchased from Invitrogen and then PAGE purified.
ATP (Perkin Elmer). Unincorporated nucleotides were discarded utilizing 'NucAway columns' (Ambion).

The target of test [2] is T2, HIV-1 subtype C integrase (Human immunodeficiency virus type 1, UniProt Q9QN97, C991S/F896H). Particulars: for Inhibition of disintegration: increasing inhibitor concentration. Here is the method: (§1) Oligonucleotide-based assays were performed to measure integrase enzymatic activities. All oligonucleotide probes were gel purified and phenol-chloroform extracted. INT1 oligonucleotide was radiolabeled using the T4 Polynucleotide Kinase kit (Ambion) with [γ-^32P] ATP (Perkin Elmer). Unincorporated nucleotides were discarded utilizing 'NucAway columns' (Ambion). A double stranded oligonucleotide substrate was obtained by mixing equal concentrations of INT1 and INT2, heating to 95°C and stepwise cooling to 37°C in 100 mM NaCl. The oligonucleotides T35 and SK70 were annealed to form a second double stranded oligonucleotide. INT1/2 mimicked the HIV-1 U5 long terminal repeat (LTR) and acted as a substrate for 3' processing. T35/SK70 acted as a site for integration of the processed INT1/2 fragment and mimicked host DNA.
Concentrations of enzymes used in the following reactions were optimized in a series of preliminary experiments. Integrase reactions were performed in a buffer containing 20 mM Hepes (pH 7.5), 30 mM NaCl, 1 mM dithiothreitol, 125 μM ZnCl2 and 0.125 pmol dsDNA substrate (INT1/2) in a final volume of 10 μl. Recombinant integrase (3.1 μM), and varying concentrations of integrase inhibitors or water/DMSO as control, were mixed and preincubated at 37°C for 15 min. 3' processing reactions were initiated by addition of 7.5 mM of MnCl2 and incubated at 37°C for 3 min unless otherwise indicated. For strand transfer reactions, 1.25 pmol of dsDNA template (T35/SK70) were added and the reaction mixture was further incubated at 37°C for 1 hour unless otherwise indicated. Reactions were stopped by adding 5 times the volume of gel loading dye (formamide containing 1% SDS, 0.25% bromophenol blue, and 0.25% xylene cyanol) and heating to 95°C. Reaction products were separated on 6% acrylamide, 7 M urea sequencing gels. Gels were dried and exposed utilizing phosphorimager screens (GE Healthcare) and scanned in a Molecular Dynamics Typhoon Phosphorimager (GE Healthcare). Product analysis and quantification were conducted using ImageQuant and GraphPad Prism 4.0 software. Quantification of standard error of the mean (SEM) was performed with GraphPad Prism 4.0 software.

Test [3] concerns Subtype B virus 5331. Description: Cell culture phenotypic drug susceptibility assay (p24 antigen) in cord blood mononuclear cells. In kind it is cell-based, HIV-1. Particulars: read-out: EC50 Values. As to the method:
(§2) Recombinant viruses (subtype B) (pNL4-3 and IIIb) and viruses obtained from either our primary HIV infection cohort or from long-term infected patients (subtype B and C) were amplified as previously described. Drug susceptibility was measured in cell culture-based phenotypic assays using cord blood mononuclear cells to determine the extent of […] HIV replication blockage by integrase inhibitors.

Test [4] deals with Subtype B virus IIIb. The description is as above. In kind it is cell-based, HIV-1. Particulars: read-out: EC50 Values. As to the method: as §2
In test [5] the test system is Subtype B virus pNL4-3. The test is described as above. Type of test: cell-based, HIV-1. To be noted: read-out: EC50 Values. Here is the method:
as §2

Test [6] has as its system Subtype C virus 4742. The description is as above. Type of test: cell-based, HIV-1. As to the method:
as §2

Test [7] deals with Subtype C virus 96USNG31. The description is as above. Type of test: cell-based, HIV-1. Here is the method: as §2
The subject of test [8] is Subtype C virus BG-05. The test is described as above. In kind it is cell-based, HIV-1. Here is the method: as §2
Test [9] deals with Subtype C virus HB-1. The test is described as above. In kind it is cell-based, HIV-1. Here is the method:
as §2

Test [10] concerns the target T1, HIV-1 subtype B integrase. Type of test: biochemical. Particulars: Mn2+-based assay, 95% confidence interval in brackets. Here is the method:
as §1
Concentrations of enzymes used in the following reactions were optimized in a series of preliminary experiments. Integrase reactions were performed in a buffer containing 20 mM Hepes (pH 7.5), 30 mM NaCl, 1 mM dithiothreitol, 125 μM ZnCl2 and 0.125 pmol dsDNA substrate (INT1/2) in a final volume of 10 μl. […] Product analysis and quantification were conducted using ImageQuant and GraphPad Prism 4.0 software. Quantification of standard error of the mean (SEM) was performed with GraphPad Prism 4.0 software.

For test [11], the target named is T1, HIV-1 subtype B integrase. Type of test: biochemical. Particulars: Mg2+-based microtiter plate assay, 95% confidence interval in brackets, read-out: Strand Transfer IC50.
Method: A microtiter plate assay was utilized to evaluate MgCl2-mediated strand transfer as previously described [24, 31]. Briefly, biotinylated oligonucleotides mimicking LTR donor DNA (5'-biotin-[sequence] and 5'-[sequence]) were immobilized onto black-colour Reacti-Bind Streptavidin-coated plates (ThermoFisher). 313 nM recombinant enzyme was bound to donor DNA on the plates in the presence of 25 mM MnCl2 and the plates were then washed to remove excess unbound enzyme. […] Covalently linked target DNA was detected through use of an anti-FITC antibody conjugated to alkaline phosphatase (Roche) and a chemiluminescence substrate (CSPD Sapphire II, Applied Biosystems). Integrase inhibitors were added at increasing concentrations shortly before the addition of target DNA. Strand transfer was evaluated by chemiluminescence.
Test [12] has as its target T2, HIV-1 subtype C integrase. Particulars: read-out: Strand Transfer IC50, Mg2+-based microtiter plate assay, 95% confidence interval in brackets. Here is the method:
A microtiter plate assay was utilized to evaluate MgCl2-mediated strand transfer as previously described. Briefly, biotinylated oligonucleotides mimicking LTR donor DNA (5'-biotin-[…] and 5'-[…]) were immobilized onto black-colour Reacti-Bind Streptavidin-coated plates (ThermoFisher). 313 nM recombinant enzyme was bound to donor DNA on the plates in the presence of 25 mM […] and the plates were then washed to remove excess unbound enzyme. […] Covalently linked target DNA was detected through use of an anti-FITC antibody conjugated to alkaline phosphatase (Roche) and a chemiluminescence substrate (CSPD Sapphire II, Applied Biosystems). Integrase inhibitors were added at increasing concentrations shortly before the addition of target DNA. Strand transfer was evaluated by chemiluminescence.

Test [13] deals with Subtype B virus 5326. The experiment in a line: Cell culture phenotypic drug susceptibility assay (p24 antigen) in cord blood mononuclear cells. Type of test: cell-based, HIV-1. To be noted: read-out: EC50 Values. As to the method:
as §2

The subject of test [14] is Subtype B virus BK 132. Described as above. Type of test: cell-based, HIV-1. To be noted: read-out: EC50 Values. Here is the method: as §2
The test system of test [15] is Subtype C virus Mole 03. The test is described as above. In kind it is cell-based, HIV-1. As to the method:
as §2

[16] abbreviates: Human immunodeficiency virus 1, read-out: EC50 Values.

Data on three compounds can be found in PMC2779801, “Comparative biochemical analysis of HIV-1 subtype B and C integrase enzymes” (Retrovirology, 2009).

Where two headings read alike, the source gives them in different places.

The EC50 is the concentration giving half of the maximal effect. The IC50 is the concentration that inhibits the measured activity by half.

As for `COc1cc2c(cc1Cc1cccc(Cl)c1F)c(=O)c(C(=O)O)cn2[C@H](CO)C(C)C` [EVG, elvitegravir], the Inhibition of disintegration entry in [1] and in test [2] was “neither RAL nor EVG had much effect” throughout. Also, the concentration giving a half-maximal response (EC50) in test [3] is 0.1 ± 0.07 nM; in test [4] (IIIB) it was 1.8 ± 0.6 nM; in test [5] it was 0.9 ± 0.3 nM; in test [6] (setting [16]) it was 2.2 ± 0.2 nM; in test [7] (setting [16]), 0.8 ± 0.6 nM; in test [8] (setting [16]), 0.8 ± 0.04 nM. Moreover, the EC50 in test [9] (setting [16]) was determined as 0.1 ± 0.01 nM.
`CCN1C[C@H](C)n2c(c(O)c3c(=O)n(Cc4ccc(F)c(Cl)c4)nc(C(=O)NC)c32)C1=O` [MK-2048]: the half-maximal inhibitory concentration (IC50) amounted to 580 nM in test [10] (read-out: 3' Processing IC50); 75 nM in test [10] (read-out: Strand Transfer IC50); 4.7 nM in [11]; 2.3 nM in [12]; 190 nM in [2] (read-out: 3' Processing IC50, Mn2+-based assay, 95% confidence interval in brackets); 80 nM in test [2] (read-out: Strand Transfer IC50, Mn2+-based assay, 95% confidence interval in brackets). Also, the Inhibition of disintegration entry in test [1] and in [2] was “inhibited by high concentrations of MK-2048” in each case. Further, the EC50 was found to be 7.2 ± 2.1 nM in [13] (Subtype B virus 5326, cord blood mononuclear cells, p24 antigen); 1 ± 0.2 nM in test [3] (Subtype B virus 5331, cord blood mononuclear cells, p24 antigen); 14.8 ± 3.2 nM in test [14] (Subtype B virus BK 132, cord blood mononuclear cells, p24 antigen); 0.3 ± 0.1 nM in test [4] (Subtype B virus IIIb, cord blood mononuclear cells, p24 antigen); 2.7 ± 0.9 nM in [5] (Subtype B virus pNL4-3, cord blood mononuclear cells, p24 antigen); 3.3 ± 2 nM in test [6] (Subtype C virus 4742, cord blood mononuclear cells, p24 antigen, read-out: EC50 Values). For the same compound, the EC50 in [7] (Subtype C virus 96USNG31, cord blood mononuclear cells, p24 antigen, read-out: EC50 Values) is 1.5 ± 0.1 nM; in test [8] (Subtype C virus BG-05, cord blood mononuclear cells, p24 antigen, read-out: EC50 Values), 2.2 ± 0.7 nM; in test [9] (Subtype C virus HB-1, cord blood mononuclear cells, p24 antigen, read-out: EC50 Values), 0.7 ± 0.5 nM; in [15] (Subtype C virus Mole 03, cord blood mononuclear cells, p24 antigen, read-out: EC50 Values) it was 1.1 ± 0.1 nM.
For `Cc1nnc(C(=O)NC(C)(C)c2nc(C(=O)NCc3ccc(F)cc3)c(O)c(=O)n2C)o1` [RAL, raltegravir], the Inhibition of disintegration result in test [1] and in test [2] was “neither RAL nor EVG had much effect” throughout. Moreover, the 50% effective concentration (EC50) in [13] was determined as 24.3 ± 2.5 nM; in test [3] it was 5.6 ± 2.2 nM; in test [14], 30.1 ± 5.4 nM; in test [4] (IIIB), 1.2 ± 0.5 nM; in test [5] it was 8.2 ± 1.3 nM; in test [6] (setting [16]), 20.6 ± 9 nM. In addition, the EC50 amounted to 8.7 ± 0.7 nM in [7] (setting [16]), 6.7 ± 0.9 nM in test [8] (setting [16]), 1.5 ± 0.4 nM in [9] (setting [16]) and 4.6 ± 0.2 nM in test [15] (setting [16]).
